US12139491B2, “Diketopiperazine derivatives as calcium ATPase inhibitor for enhancing anticancer activity” (HOLOSMEDIC, priority 2018, dated 2024)

Columns and labels:
[1] = test system: cancer stem cell-like stomach cancer cells derived from patients with relapse and metastasis after irinotecan administration, xenografted; experiment: Tumor volume and weight in stomach cancer cell xenograft mouse
[2] = test system: cancer stem cell-like stomach cancer cells derived from patients with relapse and metastasis after irinotecan administration; experiment: Irinotecan activity enhancement in irinotecan-resistant stomach cancer cells (cell number); format: cell-based, human; details: FIG. 4
Experimental: After cancer stem cell-like stomach cancer cells derived from patients with relapse and metastasis after irinotecan administration were treated with the compound of Preparation Example 1-1 only (170 nM); irinotecan only (8.9 μM); or a combination of irinotecan (4.5 μM) and the compound of Preparation Example 1-1 (75 nM), a change in cell number over treatment time was measured, and the result is shown in FIG. 4.

[3] = Body weight of stomach cancer cell xenograft mice; details: 41 days, compared with negative control, stated as no toxicity problem, FIG. 7
[4] = test system: cancer stem cell-like colorectal cancer cells derived from patients with relapse and metastasis after radiation therapy; experiment: Radiation treatment activity enhancement in radiation-resistant colorectal cancer cells (cell number); format: cell-based, human; details: compound (75 nM) and X-rays at 5 Gy; FIG. 8
Experimental: After cancer stem cell-like colorectal cancer cells derived from patients with relapse and metastasis after radiation therapy were treated with the compound of Preparation Example 1-1 (150 nM) only; Faxitron X-rays (Faxitron Bioptics, AZ, USA) at an intensity of 5 Gy (RT); or the compound of Preparation Example 1-1 (75 nM) and the X-rays at an intensity of 5 Gy, the change in number of cancer cells over treatment time was measured, and the result is shown in FIG. 8.

[5] = test system: cancer stem cell-like thyroid cancer cells derived from patients with relapse and metastasis after paclitaxel administration, xenografted; experiment: Tumor volume in thyroid cancer cell xenograft mouse; format: in vivo, BALB/c nude female mouse; details: 60 days, FIG. 3
Experimental: After cancer stem cell-like thyroid cancer cells derived from patients with relapse and metastasis after paclitaxel administration were cultured in vitro, the cultured cells were injected subcutaneously into the upper left flank of a BALB/c nude female mouse to be 2.0×10^7 cells/mouse. […] The mice were anesthetized to measure a change in tumor volume daily using calipers for 60 days, and the result is shown in FIG. 3. The tumor volume was evaluated using the following Equation 1. Tumor volume=L×S^2/2 [Equation 1] • (however, L is the longest diameter, and S is the shortest diameter)

[6] = test system: cancer stem cell-like colorectal cancer cells derived from patients with relapse and metastasis after radiation therapy, xenografted; experiment: Tumor volume and weight in colorectal cancer cell xenograft mouse; format: in vivo, BALB/c nude female mouse; details: oral compound (27 mg/kg) and X-rays at 5 Gy
Experimental: (§1) After cancer stem cell-like colorectal cancer cells, which were derived from patients with relapse and metastasis after radiation therapy, were cultured in vitro, the cultured cells were injected subcutaneously into the upper left flank of a BALB/c nude female mouse to be 2.0×10^7 cells/mouse. […] The mice were anesthetized to measure a change in tumor volume daily using calipers for 40 days, and the result is shown in FIG. 9. The tumor volume was calculated by the above-described Equation 1. In addition, after 40 days, a tumor weight was measured, and the result is shown in FIG. 10, and for 41 days, the body weight of the mouse was measured, and the result is shown in FIG. 11.

[7] = test system: cancer stem cell-like thyroid cancer cells derived from patients with relapse and metastasis after paclitaxel administration; experiment: Paclitaxel activity enhancement in paclitaxel-resistant thyroid cancer cells (cell number, viability); format: cell-based, human
Experimental: After cancer stem cell-like thyroid cancer cells derived from patients with relapse and metastasis after paclitaxel administration (ATC) were treated with a compound of Preparation Example 1-1 (150 nM) only; paclitaxel (12 nM) only; or a combination of paclitaxel (5 nM) and a compound of Preparation Example 1-1 (70 nM), a change in number of cells over time was confirmed. In addition, a change in cell viability according to a treatment concentration of paclitaxel, the compound of Preparation Example 1-1, or the combination of paclitaxel and the compound of Preparation Example 1-1 is shown in FIG. 1. In addition, the change in cell viability according to the treatment concentration of paclitaxel, the compound of Preparation Example 1-1 and the combination thereof was measured, and the result is shown in FIG. 2.

[8] = Body weight of colorectal cancer cell xenograft mice; format: in vivo, BALB/c nude female mouse; details: 41 days, compared with negative control, stated as no toxicity problem, FIG. 11
Experimental: as §1

[9] = test system: SKOV3-TR (paclitaxel-resistant epithelial ovarian cancer cell line); experiment: Cell morphology and viability (ImageJ living cell count) in SKOV3-TR; format: cell-based; details: paclitaxel 5 μM; morphological analysis
Experimental: (§2) To confirm the anticancer therapeutic activity enhancing effects of the compounds of Preparation Examples, the compounds or salts prepared in Preparation Examples 1-1 to 31 (hereinafter, the compounds of Preparation Examples) were used, and cellular experiments were carried out with an epithelial ovarian cancer cell line SKOV3 and SKOV3-TR derived therefrom and produced as a resistant cell line having resistance to a paclitaxel anticancer agent. […]
(§3) For the morphological analysis of the cells, 24, 48 and 72 hours after paclitaxel treatment, images of cells treated with “None (untreated sample)”, “DMSO (paclitaxel solvent)”, “ethanol (solvent for the compounds of Preparation Examples)”, “paclitaxel”, “paclitaxel+ethanol”, and “paclitaxel+the compound of Preparation Example 1-2 (L19001)” were obtained. In addition, for the analysis of cell viability, 72 hours after treatment with paclitaxel or the compound of each Preparation Example only, or co-treatment with paclitaxel and the compound of each Preparation Example, the number of living cells was measured through Image J analysis.
(§4) The cell viability of the two types of cancer cell lines was analyzed by measuring the number of living cells using the ImageJ program.

[10] = test system: SKOV3 (epithelial ovarian cancer cell line); experiment: Cell morphology and viability (ImageJ living cell count) in SKOV3; format: cell-based; details: paclitaxel 0.2 μM; morphological analysis
Experimental: as §2, §3, §4

Compound: CCc1c2c(nc3ccc(OC(=O)N4CCC(N5CCCCC5)CC4)cc13)-c1cc3c(c(=O)n1C2)COC(=O)[C@]3(O)CC [irinotecan, reference compound]
- change in tumor weight ([1]; oral irinotecan (75 mg/kg) only, after 40 days, compared with negative control, FIG. 6): no change
- change in number of cancer cells ([2]; irinotecan only (8.9 μM), compared with negative control): no change

Compound: CCc1oc2ccccc2c1CN1CCN2C(=O)CNC(=O)C2C1 (centres unmarked) [Preparation Example 1-1, 2-((2-ethylbenzofuran-3-yl)methyl)hexahydro-2H-pyrazino[1,2-a]pyrazine-6,9-dione]
- change in body weight of the mouse ([3]; oral compound (32 mg/kg) in combination with irinotecan (55 mg/kg)): no change
- change in body weight of the mouse ([3]; oral compound (70 mg/kg) alone): no change
- number of cancer cells [4]: remarkably decreased
- tumor volume ([5]; oral compound (27 mg/kg) then intraperitoneal paclitaxel (11 mg/kg)): remarkably decreased
- tumor volume ([1]; oral compound (32 mg/kg) and irinotecan (55 mg/kg), 40 days, FIG. 5): remarkably decreased
- tumor weight ([1]; oral compound (32 mg/kg) and irinotecan (55 mg/kg), after 40 days, FIG. 6): remarkably decreased
- number of cancer cells ([2]; combination of irinotecan (4.5 μM) and compound (75 nM)): remarkably decreased
- tumor volume ([6]; 40 days, FIG. 9): remarkably decreased
- tumor weight ([6]; after 40 days, FIG. 10): remarkably decreased
- number of stem cell-like thyroid cancer cells ([7]; combination of paclitaxel (5 nM) and compound (70 nM), FIG. 1): remarkably decreased
- cell viability of stem cell-like thyroid cancer cells ([7]; combination of paclitaxel and compound, FIG. 2): remarkably decreased
- change in body weight of the mouse ([8]; oral compound (27 mg/kg) in combination with radiation therapy (5 Gy)): no change
- change in body weight of the mouse ([8]; oral compound (60 mg/kg) only): no change

Compound: CC(=O)O[C@H]1C(=O)[C@@]2(C)[C@H]([C@H](OC(=O)c3ccccc3)[C@]3(O)C[C@H](OC(=O)[C@H](O)[C@@H](NC(=O)c4ccccc4)c4ccccc4)C(C)=C1C3(C)C)[C@]1(OC(C)=O)CO[C@@H]1C[C@@H]2O [paclitaxel, reference compound]
- change in tumor volume ([5]; intraperitoneal paclitaxel (25 mg/kg) only, compared with negative control): no change
- number of living cells (induction of cell death and inhibition of cell growth) [9]: decrease
- number of living cells (induction of cell death and inhibition of cell growth) [10]: decrease
- change in cancer cell number ([7]; paclitaxel (12 nM) only, compared with negative control, FIG. 1): no change
- viability of cancer cells ([7]; paclitaxel only, compared with negative control, FIG. 2): no change
